Results on three compounds are retold here after patent US20220299532A1, “CORRECTING PROTEIN MISFOLDING IN DIABETES” (Sanford Burnham Prebys Medical Discovery Institute, priority 2019, published 2022).

One experiment concerns mouse pancreatic islets. Put plainly: Proinsulin disulfide-linked / HMW complexes in murine islets, SDS-PAGE immunoblot (CCI-17). The format is cell-based. The settings on record: islets of WT male mice on regular diet, increasing concentrations of DTT in culture. As to the method: Mouse pancreatic islet isolation: Mice were euthanized by CO2 narcosis as per an approved institutional animal protocol. The pancreas was rapidly excised, minced in ice-cold PBS, and digested in 4 mL of Collagenase P (Roche) 1.5 mg/mL in Hank's Balanced Salt Solution containing calcium and magnesium, in a shaking water bath for 30 min at 37° C. The digestion was terminated in 40 mL ice-cold PBS (—Ca/—Mg) and the digested tissue washed twice in this buffer. The sedimented tissue digest was then overlaid with 3 mL Histopaque-1077 and further overlayed with 6 mL ice cold PBS (—Ca/—Mg) before centrifugation (3000 rpm for 20 min at 10° C. with no brake) and transfer of the midlayer of the Histopaque gradient to a 15 ml tube for two further washes in ice-cold PBS. Finally, the sedimented tissue was transferred to a petri dish in ice-cold RPMI-1640 buffer and islets hand-picked to purity. In experiments involving drug or compound treatment, the islets were finally recovered overnight in RPMI-1640 supplemented with 10% fetal bovine serum (FBS), 10 mM HEPES pH 7.35, 1 mM sodium pyruvate and 0.05 mM beta-mercaptoethanol, in a humidified 5% CO2 incubator at 37° C. For some experiments, islets were snap frozen in liquid nitrogen and stored frozen prior to analysis.
(§1) Lysis of cells or islets for SDS-PAGE and electrotransfer: After removal of media, cells were washed once with ice-cold PBS and lysed in RIPA buffer (10 mM Tris pH 7.4, 150 mM NaCl, 0.1% SDS, 1% NP40, 2 mM EDTA) plus protease inhibitor/phosphatase inhibitor cocktail (Sigma-Aldrich) or directly in Laemmli gel sample buffer. Lysates in RIPA buffer were immediately spun at 10,000 rpm for 10 min at 4° C. and the supernatants analyzed further or stored at −80° C. Islets that had been quick frozen were placed on ice and RIPA buffer containing protease inhibitor cocktail and phosphatase inhibitor was added. Lysis was carried out by gently pipetting or by syringe through a 30G needle. Total protein concentration in the lysate was determined by BCA or Bramhall assay, and 5-10 μg of samples prepared in SDS sample were resolved by SDS-PAGE in 4-12% Bis-Tris NuPAGE gels (Invitrogen) at 200 V for 30 min. Nonreducing gels were incubated in a solution containing 20 mM dithiothreitol (DTT) for 10 min at room temperature prior to electrotransfer.
(§2) Immunoblotting: Transfer membranes were rinsed once in TBST (15 mM Tris, 150 mM NaCl, 0.1% Tween-20), blocked using TST plus 5% BSA for 1 h at room temperature, and then washed four times (5 min each) in TBST. Primary antibody and secondary antibodies were diluted in TBST and each of […] incubations was 1 h at room temperature followed by 4 washes in TBST. On occasion, primary antibodies were incubated overnight at 4° C. Secondary antibodies were all HRP-conjugates. Development of immunoblots used enhanced chemiluminescence (Immobilon, Millipore, or SuperSignal West Pico PLUS, Thermo Fisher Scientific) with images captured using a Fotodyne gel imager.
Islet Isolation: Islets were isolated by collagenase P (Roche) perfusion as described following by histopaque-1077 (Sigma-Aldrich, Inc. St. Louis) gradient purification. Islets were handpicked and studied directly or after overnight culture in RPMI 1640 medium (Corning 10-040-CV) supplemented with 10% FBS, 1% penicillin/streptomycin, 100 μg/m1 primocin, 10mM Hepes, and 1mM sodium pyruvate.
Islet Western Blotting: Isolated islets were lysed in RIPA buffer (10 mM Tris pH 7.4, 150 mM NaCl, 0.1% SDS, 1% NP-40, 2mM EDTA) with protease and phosphatase inhibitors (Fisher Scientific) on ice for 10 min and lysates were collected after centrifugation at 4° C. for 10 min at 12000 g. Samples were prepared in Laemmli sample buffer without (non-reducing) or with (reducing) 5% β-mercaptoethanol. After boiling for 5 min, samples were analyzed by SDS-PAGE (4-12% Bis-Tris gel, (Bio-Rad Laboratories, Inc.)) and transferred to nitrocellulose membranes (Bio-Rad Laboratories, Inc.). […]
Background: A western blot detects proteins with antibodies after separation by electrophoresis.

Experiment [1] has as its system murine embryonic fibroblasts (MEFs). The experiment in a line: Human proinsulin delivered by adenovirus to murine embryonic fibroblasts, non-reducing SDS-PAGE. It is filed as cell-based, mouse. The conditions noted are these: MEFs infected with Ad-hProins, increasing concentrations of DTT. As for the experimental part: Generation and culture of primary mouse embryonic fibroblast (MEF): WT C57BL/6 d14 embryos were isolated under sterile conditions and placed in 100 mm cell culture dish containing PBS. Placental and other maternal tissues were removed and the embryos were washed three times with PBS. Heads and visceral organs were removed. The heads were used for genotyping. Embryos were finely minced with a sterile razor blade and treated with 1 ml of 0.25% trypsin/EDTA (Corning) for 40 min at 37° C. DMEM medium (Corning) supplemented with 10% FBS, 1% penicillin/streptomycin, 100 μg/ml primocin and 1 mM sodium pyruvate was added to quench trypsin activity. Tissue homogenate was subsequently disaggregated by repeated pipetting, and further centrifuged to collect the fibroblast cell pallet. Cells were plated in 100 mm culture dish in DMEM medium at 37° C. in a cell culture incubator under 5% CO2. To prevent mycoplasma, bacterial, and fungal contamination, primary MEFs were cultured in medium containing 100 μg/ml primocin (InvivoGen) and used for experiments prior to passage #5.
To study the impact of PDIA1 in the absence of C peptide processing in a more manipulatable system, the inventors analyzed human proinsulin expression delivered by adenovirus to murine embryonic fibroblasts (MEFs) that were co-infected with WT PDIA1 or PDIA1 with 4 Cys to Ser mutations in the two vicinal catalytic PDI sites. […]

The test system of the next experiment is INS-832/13 β-cell line. Put plainly: Detection of myc-tagged two-cysteine proinsulin mutants in INS-832/13 cells, nonreducing SDS-PAGE immunoblot. The format is cell-based, rat. The settings on record: MG132 10 μg/mL for 7 h. As for the experimental part: (§3) Cell and islet culture: Rat pancreatic beta cell lines INS1E and INS-832/13 were cultured in RPMI-1640 medium supplemented with 10% FBS, 10 mM HEPES pH 7.35, 1 mM sodium pyruvate, penicillin/streptomycin and 0.05 mM beta-mercaptoethanol. HEK293T human cells lines were cultured in DMEM supplemented with 10% FBS and penicillin/streptomycin.
(§4) Transfection of cells: 293T cells, INS1E cells, and INS-832/13 cells at 70-80% confluency were transiently transfected using Lipofectamine 2000 (ThermoFisher) as per the manufacturer's instructions. A medium change was performed 5 h post-transfection and the cells were lysed at 36 or 48 h.
as §1, with “Islets that had been quick frozen were placed on ice and RIPA buffer containing protease inhibitor cocktail and phosphatase inhibitor was added. Lysis was carried out by gently pipetting or by syringe through a 30G needle.” left out, “Nonreducing gels were incubated in a solution containing 20 mM dithiothreitol (DTT) for 10 min at room temperature prior to electrotransfer.” left out

Another experiment relates to 293T cells. Put plainly: Disulfide-linked complexes of recombinant human proinsulin in 293T cells, nonreducing SDS-PAGE immunoblot (mAb 20G11). It is filed as cell-based. The conditions noted are these: overnight PERK inhibitor. As for the experimental part:
as §3, §4
as §1, with “Islets that had been quick frozen were placed on ice and RIPA buffer containing protease inhibitor cocktail and phosphatase inhibitor was added. Lysis was carried out by gently pipetting or by syringe through a 30G needle.” left out, “Nonreducing gels were incubated in a solution containing 20 mM dithiothreitol (DTT) for 10 min at room temperature prior to electrotransfer.” left out

The subject of experiment [2] is INS1E cells. The experiment in a line: Intracellular proinsulin distribution in INS1E cells, indirect immunofluorescence. The format is cell-based, rat. The conditions noted are these: overnight PERK inhibitor, anti-proinsulin GS-9A8 and anti-calnexin. As for the experimental part:
Immunohistochemistry/immunocytochemistry: Pancreatic paraffin sections were de-paraffinized with Citrisolv (Fisher Scientific) for 5 min at room temperature, re-hydrated in a series of 8 min ethanol incubations: 100%, 95%, 70%, and distilled water. Antigen retrieval was carried out using Retrieve-ALL 1 Universal pH 8 (BioLegend) and slides were heated in a microwave, cooled for 30 min at room temperature, and incubated once with PBS for 5 min. Blocking was performed in 150 μL blocking buffer (3% BSA prepared in TBS and 0.2% Triton X-100) per section for 2 h at room temperature. Blocking buffer was removed and 150 μL per section of primary antibody appropriately diluted in TBS plus 3% BSA and 0.2% Tween-20 was incubated overnight at 4° C. The primary antibody was removed and the slide washed twice with TBS/0.1% Tween-20. Then, 150 μL secondary antibody (1:500 dilution, prepared in antibody buffer) per section was incubated for 1 h at room temperature. Slides were washed thrice with TBS/0.1% Tween-20, mounted with a drop of prolong gold anti-fade reagent with DAPI (ThermoFisher) and a cover slip affixed. For immunocytochemistry, INS1E cells were grown in an 8-well Millicell® EZ SLIDE (Millipore-SIGMA). Cells were allowed to reach 60-80% confluency before addition of PERK inhibitor (PERKi) or vehicle. […]

Experiment [3] has as its system INS1E cells. Put plainly: Proinsulin disulfide-linked complexes in INS1E cells, nonreducing/reducing SDS-PAGE and immunoblotting (mAb CCI-17). It is filed as cell-based, rat. As for the experimental part:
HEK293T human cells lines were cultured in DMEM supplemented with 10% FBS and penicillin/streptomycin.
as §1, with “Islets that had been quick frozen were placed on ice and RIPA buffer containing protease inhibitor cocktail and phosphatase inhibitor was added.” left out, “Total protein concentration in the lysate was determined by BCA or Bramhall assay, and 5-10 μg of samples prepared in SDS sample were resolved by SDS-PAGE in 4-12% Bis-Tris NuPAGE gels (Invitrogen) at 200 V for 30 min.” left out
The lane was then laid horizontally on top of a 10% SDS-polyacrylamide resolving gel and sealed in place in stacking gel. A single-tooth comb was introduced at one end of the stacking gel to introduce a one-dimensional reduced sample of proinsulin containing cell lysate (which runs as proinsulin monomer). The gel was run at 200 V for 45 mins in Tris-Glycine buffer pH 8.8 with electrotransfer as described above.
as §2

A further experiment concerns human islets. Put plainly: Proinsulin disulfide-linked complexes in human islets, SDS-PAGE immunoblot (mAb 20G11). It is filed as cell-based. The conditions noted are these: overnight PERK inhibitor. As for the experimental part: Human pancreatic islets: Human islets were obtained either from Prodo Labs, or from the NIDDK-funded Integrated Islet Distribution Program (IIDP; NIH UC4-DK098085) and maintained in a humidified 5% CO2 incubator at 37° C. Human islets were cultured ex vivo for up to 96 h in Prodo PIM(R) islet19 specific tissue culture medium supplemented with 10% FBS and Prodo PIM(G) glutamine/glutathione supplement, plus penicillin/streptomycin.
as §1, with “Nonreducing gels were incubated in a solution containing 20 mM dithiothreitol (DTT) for 10 min at room temperature prior to electrotransfer.” left out

Each structure is given as a SMILES string. Residues, ends and D or L forms follow the SMILES beside them. *: point of attachment. Cbz = O=C(OCc1ccccc1)*

For the compound `O[C@H](CS)[C@H](O)CS` (racemic) [dithiothreitol], the “proinsulin monomer and dimer” value in the experiment on mouse pancreatic islets was “increasing amounts of the proinsulin monomer and residual disulfide-linked dimer”. Besides, in experiment [1], the reduced proinsulin result is “increased the amount of reduced proinsulin”.

With `CC(C)C[C@@H](C=O)NC(=O)[C@H](CC(C)C)NC(=O)[C@H](CC(C)C)NC(=O)OCc1ccccc1` [MG132] (Cbz-Leu-Leu-Leu-aldehyde), the “detection of myc-tagged proinsulin mutants (keep-B7/A7, keep-A6/A11, keep-B19/A20)” value in the experiment on INS-832/13 β-cell line is “myc-tagged proinsulin monomers were detected in all cases”.

For `Cc1cccc(CC(=O)N2CCc3c2ccc(-c2cn(C)c4ncnc(N)c24)c3F)n1` [PERK inhibitor, GSK2656157], the “disulfide-linked proinsulin dimers and higher-order complexes of recombinant human proinsulin” value in the experiment with 293T cells is “accumulated to a dramatically higher level”. The intracellular proinsulin distribution entry in the experiment on INS1E cells [2] is “shifted its distribution to the classic impacted-ER phenotype”. For the same compound, the “disulfide-linked proinsulin complexes as share of all recovered proinsulin” value in the experiment with INS1E cells [3] (INS1E cells treated with PERK inhibitor, 2D nonreducing/reducing SDS-PAGE) was 87%. The “intracellular proinsulin in disulfide-linked complexes with increasing time of exposure” value in the experiment with INS1E cells [3] (INS1E cells, PERK inhibitor for last 0, 5, 10 or 20 h) is on record as “the majority of intracellular proinsulin accumulated in disulfide-linked complexes”. Also, the “intracellular accumulation of proinsulin” value with INS1E cells [3] (INS1E cells, PERK inhibitor overnight (GSK2656157, 2 μM) vs vehicle DMSO) is “dramatically increased”. In addition, the insulin content entry in the experiment on INS1E cells [3] (INS1E cells, PERK inhibitor up to 20 h) is recorded as “decreased insulin content”. Further, the proinsulin secretion entry in the experiment on INS1E cells [3] (INS1E cells, PERK inhibitor up to 20 h, media) is reported as “decreased proinsulin secretion”. Moreover, the “secretion of proinsulin to the medium” value in the experiment on INS1E cells [3] (INS1E cells, overnight PERK inhibitor, nonreducing SDS-PAGE of media) was “not increased”. Moreover, the “higher order disulfide-linked proinsulin complexes” value in the experiment with human islets (nonreducing SDS-PAGE) is on record as “further increase in higher order disulfide-linked complexes”. Moreover, in the experiment with human islets (reducing SDS-PAGE), the total islet proinsulin entry is given as “increase in total islet proinsulin”.
